Results from US11524963B2, “Substituted pyrazolo[3,4-d]pyrimidines as RET kinase inhibitors” (Array Biopharma Inc., priority 2018, dated 2022).
Positions count from the first letter of the chain named. pIC50: −log10 of the molar value.

Columns and labels:
RET kinase Wild Type = RET kinase Wild Type (Homo sapiens, UniProt P07949); experiment: RET Enzyme Assay (HTRF KinEASE-TK), Wild Type; format: biochemical
RET kinase V804M = RET kinase V804M (Homo sapiens, UniProt P07949, V804M); experiment: RET Enzyme Assay (HTRF KinEASE-TK), V804M; format: biochemical
RET kinase V804M, sequence (P07949 29-1114 V804M): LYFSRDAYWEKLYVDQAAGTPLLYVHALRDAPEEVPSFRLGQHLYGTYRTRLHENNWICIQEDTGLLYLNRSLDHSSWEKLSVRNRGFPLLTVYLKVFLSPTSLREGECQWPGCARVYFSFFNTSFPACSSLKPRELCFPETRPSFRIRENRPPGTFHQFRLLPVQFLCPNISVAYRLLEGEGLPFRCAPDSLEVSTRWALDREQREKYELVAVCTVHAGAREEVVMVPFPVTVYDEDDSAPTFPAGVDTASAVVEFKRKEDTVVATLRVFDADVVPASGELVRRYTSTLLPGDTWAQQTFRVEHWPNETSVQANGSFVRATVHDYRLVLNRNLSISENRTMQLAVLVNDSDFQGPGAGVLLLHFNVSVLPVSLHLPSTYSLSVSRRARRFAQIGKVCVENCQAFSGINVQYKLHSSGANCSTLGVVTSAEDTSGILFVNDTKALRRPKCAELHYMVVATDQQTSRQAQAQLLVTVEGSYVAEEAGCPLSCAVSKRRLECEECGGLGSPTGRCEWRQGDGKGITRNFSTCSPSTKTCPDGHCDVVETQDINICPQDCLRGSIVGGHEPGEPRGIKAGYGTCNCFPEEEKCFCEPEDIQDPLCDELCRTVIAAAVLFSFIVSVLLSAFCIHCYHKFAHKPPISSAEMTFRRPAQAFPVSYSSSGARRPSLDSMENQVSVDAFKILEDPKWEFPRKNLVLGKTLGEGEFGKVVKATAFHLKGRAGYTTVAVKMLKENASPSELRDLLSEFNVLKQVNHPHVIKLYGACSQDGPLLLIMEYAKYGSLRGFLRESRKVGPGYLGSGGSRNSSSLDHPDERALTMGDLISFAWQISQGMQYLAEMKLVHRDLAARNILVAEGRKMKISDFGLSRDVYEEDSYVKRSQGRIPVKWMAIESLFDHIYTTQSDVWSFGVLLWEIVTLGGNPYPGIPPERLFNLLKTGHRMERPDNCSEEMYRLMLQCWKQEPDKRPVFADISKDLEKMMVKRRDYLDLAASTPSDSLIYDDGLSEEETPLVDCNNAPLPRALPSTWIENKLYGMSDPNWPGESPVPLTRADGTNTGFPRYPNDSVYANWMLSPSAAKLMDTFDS

RET kinase M918T = RET kinase M918T (Homo sapiens, UniProt P07949, M918T); experiment: RET Enzyme Assay (HTRF KinEASE-TK), M918T; format: biochemical
RET kinase M918T, sequence (P07949 29-1114 M918T): as the sequence (P07949 29-1114 V804M) above, with M776V, M890T counted along it

RET kinase G810R = RET kinase G810R (Homo sapiens, UniProt P07949, G810R); experiment: RET Enzyme Assay (HTRF KinEASE-TK), G810R; format: biochemical
RET kinase G810R, sequence (P07949 29-1114 G810R): as the sequence (P07949 29-1114 V804M) above, with M776V, G782R counted along it

RET kinase G810S = RET kinase G810S (Homo sapiens, UniProt P07949, G810S); experiment: RET Enzyme Assay (HTRF KinEASE-TK), G810S; format: biochemical
RET kinase G810S, sequence (P07949 29-1114 G810S): as the sequence (P07949 29-1114 V804M) above, with M776V, G782S counted along it

[1] = target: T1, HEK-293 cells expressing a Kif5b-RET fusion protein (Homo sapiens, UniProt P07949); experiment: RET Cell Assay (phospho-RET Tyr1062); format: cell-based; details: 1 hour with compound, phospho-RET(Tyr1062) normalized to GAPDH, read-out: KIF5B-RET pTYR1062 Cell IC50
T1 construct: expressed in transfected cells; host or cells: HEK-293; the other entry of the earlier key: KIF5B (P33176, Kinesin-1 heavy chain)
T1 sequence (P07949 713-1063 limits assumed): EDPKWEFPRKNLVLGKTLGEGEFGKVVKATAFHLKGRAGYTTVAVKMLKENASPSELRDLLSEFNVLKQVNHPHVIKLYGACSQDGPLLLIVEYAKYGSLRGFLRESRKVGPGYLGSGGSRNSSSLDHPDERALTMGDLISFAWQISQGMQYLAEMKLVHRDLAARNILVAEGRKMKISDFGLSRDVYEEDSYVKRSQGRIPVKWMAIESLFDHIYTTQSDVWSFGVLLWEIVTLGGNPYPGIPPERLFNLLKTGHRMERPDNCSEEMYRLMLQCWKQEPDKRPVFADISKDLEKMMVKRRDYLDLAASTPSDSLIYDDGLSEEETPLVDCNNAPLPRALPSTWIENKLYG
Method: (§1) The cellular potency of compounds inhibiting RET kinase were determined in HEK-293 cells expressing a Kif5b-RET fusion protein. Briefly, HEK-293 cells expressing a Kif5b-RET fusion protein were plated at 50K cells/well in 96 well poly-D-Lysine coated plates the day prior to the assay. The cells were incubated for 1 hour with test compound in DMEM (Dulbecco's Modified Eagle Medium) at a final DMSO concentration of 0.5%. […] After 1 hour the media was removed, the cells were fixed with 3.8% formaldehyde for 20 min, washed with PBS, and permeabilized for 10 min with 100% methanol. […] All antibodies were diluted in LI-COR Block containing 0.05% Tween. The plates were washed with PBS-0.05% Tween20, 100 μL PBS is added to each well, and the plates were read on a LI-COR Aerius fluorescent plate reader. The phospho-RET signal was normalized to the GAPDH signal. 100 POC (percent of control) was determined using no test compounds and 0 POC was determined using 1 μM of a control inhibitor. The POC values were fit to a 4 parameter logistic curve. The IC50 value is the point where the curve crosses 50 POC.

[2] = target: T2, HEK-293 cells expressing a G810R mutant RET Kif5b-RET fusion protein (Homo sapiens, UniProt P07949, G810R); experiment: RET G810R Mutant Cell Assay (phospho-RET Tyr1062); format: cell-based; details: 1 hour with compound, phospho-RET(Tyr1062) normalized to GAPDH
T2 construct: expressed in transfected cells; host or cells: HEK-293; the other entry of the earlier key: KIF5B (P33176, Kinesin-1 heavy chain)
T2 sequence (P07949 713-1063 G810R limits assumed): T1 sequence (P07949 713-1063 limits assumed) with G98R
Method: RET G810R and G810S Mutant Cell Assay
as §1, with “expressing a G810R or G810S mutant RET Kif5b-RET fusion” for “expressing a Kif5b-RET fusion”, “μL PBS was added to” for “μL PBS is added to”, “POC values are fit to” for “POC values were fit to”

RET kinase Wild Type, sequence (P07949 29-1114): as the sequence (P07949 29-1114 V804M) above, with M776V counted along it

## CC(C)n1nc(-c2noc(C3CC3)c2C2CCCCO2)c2c(N)ncnc21 (stereo not shown) [Example 16, 3-(5-cyclopropyl-4-(tetrahydro-2H-pyran-2-yl)isoxazol-3-yl)-1-isopropyl-1H-pyrazolo[3,4-d]pyrimidin-4-amine]
RET kinase Wild Type
  pIC50: 9.22
RET kinase V804M
  pIC50: 8.89
RET kinase M918T
  pIC50: 9.15
RET kinase G810R
  pIC50: 8.44
RET kinase G810S
  pIC50: 8.40
[1]
  pIC50: 7.55
[2]
  pIC50: 6.79

## CC(C)n1nc(-c2noc(C3CC3)c2C2=CCCCO2)c2c(N)ncnc21 [Example 9, 3-(5-cyclopropyl-4-(3,4-dihydro-2H-pyran-6-yl)isoxazol-3-yl)-1-isopropyl-1H-pyrazolo[3,4-d]pyrimidin-4-amine]
RET kinase Wild Type
  pIC50: 9.52
RET kinase V804M
  pIC50: 9.22
RET kinase M918T
  pIC50: 9.70
RET kinase G810R
  pIC50: 8.85
RET kinase G810S
  pIC50: 8.85
[1]
  pIC50: 7.62
[2]
  pIC50: 6.86

## CC(C)n1nc(-c2ccnn2C2CCCCO2)c2c(N)ncnc21 (stereo not shown) [Example 23, 1-isopropyl-3-(1-(tetrahydro-2H-pyran-2-yl)-1H-pyrazol-5-yl)-1H-pyrazolo[3,4-d]pyrimidin-4-amine]
RET kinase Wild Type
  pIC50: 8.39
RET kinase V804M
  pIC50: 7.56
RET kinase M918T
  pIC50: 8.07
RET kinase G810R
  pIC50: 7.80
RET kinase G810S
  pIC50: 7.34
[1]
  pIC50: 6.46
[2]
  pIC50: 5.00

## CC(C)n1nc(-c2noc(C3CC3)c2C2=CCC(C)(O)CC2)c2c(N)ncnc21 (stereo not shown) [Example 15, 4-(3-(4-amino-1-isopropyl-1H-pyrazolo[3,4-d]pyrimidin-3-yl)-5-cyclopropylisoxazol-4-yl)-1-methylcyclohex-3-en-1-ol]
RET kinase Wild Type
  pIC50: 8.89
RET kinase V804M
  pIC50: 8.19
RET kinase M918T
  pIC50: 8.80
RET kinase G810R
  pIC50: 8.20
RET kinase G810S
  pIC50: 8.20
[1]
  pIC50: 7.38
[2]
  pIC50: 6.58
